Target: T1, ERα (Homo sapiens, UniProt P03372)
T1 construct: host or cells: MCF7
T1 sequence (P03372 1-595): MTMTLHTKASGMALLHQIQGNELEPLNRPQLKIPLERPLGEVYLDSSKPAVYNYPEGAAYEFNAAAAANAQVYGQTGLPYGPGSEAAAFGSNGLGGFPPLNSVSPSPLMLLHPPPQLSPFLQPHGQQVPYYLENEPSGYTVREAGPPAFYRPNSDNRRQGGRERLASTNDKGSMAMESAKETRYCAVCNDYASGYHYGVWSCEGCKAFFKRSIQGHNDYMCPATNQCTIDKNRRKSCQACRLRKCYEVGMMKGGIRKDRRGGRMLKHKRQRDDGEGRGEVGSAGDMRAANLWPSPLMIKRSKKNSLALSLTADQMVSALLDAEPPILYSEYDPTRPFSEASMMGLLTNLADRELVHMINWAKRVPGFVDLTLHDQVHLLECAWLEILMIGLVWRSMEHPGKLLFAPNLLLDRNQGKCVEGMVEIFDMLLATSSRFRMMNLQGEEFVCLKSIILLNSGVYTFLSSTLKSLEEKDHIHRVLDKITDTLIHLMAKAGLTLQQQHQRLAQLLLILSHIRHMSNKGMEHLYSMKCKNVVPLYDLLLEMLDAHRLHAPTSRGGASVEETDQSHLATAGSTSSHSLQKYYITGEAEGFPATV
Assay: Estrogen receptor degradation activity: breast cancer cell ERα in cell western assay (MCF7 cells)
Format: cell-based
Conditions: for % Degradation At 0.3 μM: 4 hours, relative to fulvestrant 0.1 μM positive control; for DC50: 4 hours post compound addition, concentration which degrades 50% of the estrogen receptor, read-out: Degradation IC50
Method in brief: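 In-cell western readout: ERα immunofluorescence (Alexa 488) normalised to DNA signal (Syto-64) after formalin fixation. Compounds dosed for 4 h on MCF7 cells in stripped-serum, phenol-red-free medium over nine 1:5 steps, 0.3 to […] final; fulvestrant 0.1 μM control. IC50 in nM for 50% ERα degradation.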

`O=C(O)c1ccc2c(c1)CCCC(c1cccc(C(F)(F)F)c1F)=C2c1ccc(C=C2CN(CCC(F)F)C2)cc1` [Example 129, 9-(4-((1-(3,3-difluoropropyl)azetidin-3-ylidene)methyl)phenyl)-8-(2-fluoro-3-(trifluoromethyl)phenyl)-6,7-dihydro-5H-benzo[7]annulene-3-carboxylic acid] was tested, and the “% Degradation At 0.3 μM” value was 94% and the DC50 was 1000 pM.
In the case of `O=C(O)c1ccc2c(c1)CCCC(c1ccc3c(c1F)CCC3)=C2c1ccc(C=C2CN(CCCF)C2)cc1` [Example 7, 8-(4-fluoro-2,3-dihydro-1H-inden-5-yl)-9-(4-((1-(3-fluoropropyl)azetidin-3-ylidene)methyl)phenyl)-6,7-dihydro-5H-benzo[7]annulene-3-carboxylic acid], the “% Degradation At 0.3 μM” value was 90% and the DC50 was 600 pM.
For `CC1CCc2cc(C(=O)O)ccc2C(c2ccc(C=C3CN(CCCF)C3)cc2)=C1c1ccc(Cl)cc1` (single isomer, unassigned) [Example 184, 8-(4-chlorophenyl)-9-(4-((1-(3-fluoropropyl)azetidin-3-ylidene)methyl)phenyl)-7-methyl-6,7-dihydro-5H-benzo[7]annulene-3-carboxylic acid], the “% Degradation At 0.3 μM” value was 90% and the DC50 was 400 pM.
In the case of `O=C(O)c1ccc2c(c1)CCCC(c1c(F)ccc3c1CCC3)=C2c1ccc(C=C2CN(CCCF)C2)cc1` [Example 6, 8-(5-fluoro-2,3-dihydro-1H-inden-4-yl)-9-(4-((1-(3-fluoropropyl)azetidin-3-ylidene)methyl)phenyl)-6,7-dihydro-5H-benzo[7]annulene-3-carboxylic acid], the “% Degradation At 0.3 μM” value was 92% and the DC50 was 400 pM.
With `O=C(O)c1ccc2c(c1)CCCC(c1c(F)ccc3c1CCC3)=C2c1ccc(C=C2CN(CCC(F)F)C2)cc1` [Example 160, 9-(4-((1-(3,3-difluoropropyl)azetidin-3-ylidene)methyl)phenyl)-8-(5-fluoro-2,3-dihydro-1H-inden-4-yl)-6,7-dihydro-5H-benzo[7]annulene-3-carboxylic acid] the “% Degradation At 0.3 μM” value was 93% and the DC50 was 600 pM.
In the case of `Cl.O=C(O)c1ccc2c(c1)CCC(c1ccc(Cl)cc1Cl)=C2c1ccc(C=C2CN(CCCF)C2)cc1` [Example 106, 6-(2,4-dichlorophenyl)-5-(4-((1-(3-fluoropropyl)azetidin-3-ylidene)methyl)phenyl)-7,8-dihydronaphthalene-2-carboxylic acid hydrochloride], the “% Degradation At 0.3 μM” value was 93% and the DC50 was 1000 pM.
For `O=C(O)c1ccc2c(c1)CCCC(c1ccc(F)cc1F)=C2c1ccc(C=C2CN(CCCF)C2)c(F)c1` [Example 53, 8-(2,4-difluorophenyl)-9-(3-fluoro-4-((1-(3-fluoropropyl)azetidin-3-ylidene)methyl)phenyl)-6,7-dihydro-5H-benzo[7]annulene-3-carboxylic acid], the “% Degradation At 0.3 μM” value was 94% and the DC50 was 300 pM.
For `Cl.O=C(O)c1ccc2c(c1)CCCC(c1cccc(C(F)(F)F)c1)=C2c1ccc(C=C2CN(CCCF)C2)cc1` [Example 182, 9-(4-((1-(3-fluoropropyl)azetidin-3-ylidene)methyl)phenyl)-8-(3-(trifluoromethyl)phenyl)-6,7-dihydro-5H-benzo[7]annulene-3-carboxylic acid hydrochloride], the “% Degradation At 0.3 μM” value was 89% and the DC50 was 600 pM.
For `O=C(O)c1ccc2c(c1)CCCC(c1cccc(Cl)c1F)=C2c1ccc(C=C2CN(CCCF)C2)cc1` [Example 47, 8-(3-chloro-2-fluorophenyl)-9-(4-((1-(3-fluoropropyl)azetidin-3-ylidene)methyl)phenyl)-6,7-dihydro-5H-benzo[7]annulene-3-carboxylic acid], the “% Degradation At 0.3 μM” value was 91% and the DC50 was 300 pM.
With `Cc1cc(C=C2CN(CCCF)C2)c(F)cc1C1=C(c2ccc(F)cc2F)CCCc2cc(C(=O)O)ccc21.Cl` [Example 15, 8-(2,4-difluorophenyl)-9-(5-fluoro-4-((1-(3-fluoropropyl)azetidin-3-ylidene)methyl)-2-methylphenyl)-6,7-dihydro-5H-benzo[7]annulene-3-carboxylic acid hydrochloride] the “% Degradation At 0.3 μM” value was 87% and the DC50 was 600 pM.
`Cc1c(C2=C(c3ccc(C=C4CN(CCCF)C4)cc3)c3ccc(C(=O)O)cc3CCC2)ccc(Cl)c1F` [Example 81, 8-(4-chloro-3-fluoro-2-methylphenyl)-9-(4-((1-(3-fluoropropyl)azetidin-3-ylidene)methyl)phenyl)-6,7-dihydro-5H-benzo[7]annulene-3-carboxylic acid] was tested, and the “% Degradation At 0.3 μM” value was 98% and the DC50 was 400 pM.
With `O=C(O)c1ccc2c(c1)CCCC(c1ccc(Cl)c(C(F)(F)F)c1)=C2c1ccc(C=C2CN(CCCF)C2)cc1` [Example 5, 8-(4-chloro-3-(trifluoromethyl)phenyl)-9-(4-((1-(3-fluoropropyl)azetidin-3-ylidene)methyl)phenyl)-6,7-dihydro-5H-benzo[7]annulene-3-carboxylic acid] the “% Degradation At 0.3 μM” value was 88% and the DC50 was 1000 pM.
In the case of `O=C(O)c1ccc2c(c1)CCCC(c1cccc3c1CCC3(F)F)=C2c1ccc(C=C2CN(CCC(F)F)C2)cc1` [Example 164, 8-(1,1-difluoro-2,3-dihydro-1H-inden-4-yl)-9-(4-((1-(3,3-difluoropropyl)azetidin-3-ylidene)methyl)phenyl)-6,7-dihydro-5H-benzo[7]annulene-3-carboxylic acid], the “% Degradation At 0.3 μM” value was 93% and the DC50 was 1400 pM.
With `Cc1cc(C2=C(c3ccc(Cl)cc3Cl)CCCc3cc(C(=O)O)ccc32)ccc1C=C1CN(CCCF)C1` [Example 64, 8-(2,4-dichlorophenyl)-9-(4-((1-(3-fluoropropyl)azetidin-3-ylidene)methyl)-3-methylphenyl)-6,7-dihydro-5H-benzo[7]annulene-3-carboxylic acid] the “% Degradation At 0.3 μM” value was 93% and the DC50 was 300 pM.
`O=C(O)c1ccc2c(c1)CCCC(c1cc(F)cc3c1CCC3)=C2c1ccc(C=C2CN(CCCF)C2)cc1` [Example 4, 8-(6-fluoro-2,3-dihydro-1H-inden-4-yl)-9-(4-((1-(3-fluoropropyl)azetidin-3-ylidene)methyl)phenyl)-6,7-dihydro-5H-benzo[7]annulene-3-carboxylic acid] was tested, and the “% Degradation At 0.3 μM” value was 86% and the DC50 was 800 pM.
In the case of `COc1nccc(C2=C(c3ccc(C=C4CN(CCCF)C4)cc3)c3ccc(C(=O)O)cc3CCC2)c1F` [Example 2, 8-(3-fluoro-2-methoxypyridin-4-yl)-9-(4-((1-(3-fluoropropyl)azetidin-3-ylidene)methyl)phenyl)-6,7-dihydro-5H-benzo[7]annulene-3-carboxylic acid], the “% Degradation At 0.3 μM” value was 92% and the DC50 was 600 pM.
`O=C(O)c1ccc2c(c1)CCCC(c1ccc(C3CC3)cc1F)=C2c1ccc(C=C2CN(CCCF)C2)cc1` [Example 34, 8-(4-cyclopropyl-2-fluorophenyl)-9-(4-((1-(3-fluoropropyl)azetidin-3-ylidene)methyl)phenyl)-6,7-dihydro-5H-benzo[7]annulene-3-carboxylic acid] was tested, and the “% Degradation At 0.3 μM” value was 90% and the DC50 was 300 pM.
With `Cc1c(C2=C(c3ccc(C=C4CN(CCCF)C4)cc3)c3ccc(C(=O)O)cc3CCC2)cccc1C(F)(F)F` [Example 14] the “% Degradation At 0.3 μM” value was 88% and the DC50 was 200 pM.
For `O=C(O)c1ccc2c(c1)CCCC(c1ccc(F)cc1F)=C2c1ccc(C=C2CN(CCCF)C2)cc1` [Example 54, 8-(2,4-difluorophenyl)-9-(4-((1-(3-fluoropropyl)azetidin-3-ylidene)methyl)phenyl)-6,7-dihydro-5H-benzo[7]annulene-3-carboxylic acid], the “% Degradation At 0.3 μM” value was 93% and the DC50 was 400 pM.
With `Cc1cc(F)ccc1C1=C(c2cc(F)c(C=C3CN(CCCF)C3)cc2C)c2ccc(C(=O)O)cc2CCC1.Cl` [Example 61, 8-(4-fluoro-2-methylphenyl)-9-(5-fluoro-4-((1-(3-fluoropropyl)azetidin-3-ylidene)methyl)-2-methylphenyl)-6,7-dihydro-5H-benzo[7]annulene-3-carboxylic acid hydrochloride] the “% Degradation At 0.3 μM” value was 93% and the DC50 was 800 pM.
`O=C(O)c1ccc2c(c1)CCCC(c1ccc3c(c1)CC3)=C2c1ccc(C=C2CN(CCCF)C2)cc1` [Example 8, 8-(Bicyclo[4.2.0]octa-1,3,5-trien-3-yl)-9-(4-((1-(3-fluoropropyl)azetidin-3-ylidene)methyl)phenyl)-6,7-dihydro-5H-benzo[7]annulene-3-carboxylic acid] was tested, and the “% Degradation At 0.3 μM” value was 86% and the DC50 was 400 pM.
In the case of `O=C(O)c1ccc2c(c1)CCCC(c1ccc(Cl)cc1Cl)=C2c1ncc(C=C2CN(CCCF)C2)cc1F` [Example 158, 8-(2,4-Dichlorophenyl)-9-(3-fluoro-5-((1-(3-fluoropropyl)azetidin-3-ylidene)methyl)pyridin-2-yl)-6,7-dihydro-5H-benzo[7]annulene-3-carboxylic acid], the “% Degradation At 0.3 μM” value was 94% and the DC50 was 400 pM.
`Cc1c(F)ccc(C2=C(c3ccc(C=C4CN(CCCF)C4)cc3)c3ccc(C(=O)O)cc3CCC2)c1C` [Example 87, 8-(4-fluoro-2,3-dimethylphenyl)-9-(4-((1-(3-fluoropropyl)azetidin-3-ylidene)methyl)phenyl)-6,7-dihydro-5H-benzo[7]annulene-3-carboxylic acid] was tested, and the “% Degradation At 0.3 μM” value was 94% and the DC50 was 400 pM.

From patent US12612360B2 (Sanofi, priority 2020, dated 2026)
